# Assay results: patent US20140271855A1, “SOVAPREVIR TABLETS” (Achillion Pharmaceuticals Inc., priority 2013, published 2014)
# How the values were obtained:
# [1] = Human pharmacokinetic parameters following a single Sovaprevir tablet dose; assay type: in vivo; details: single tablet dose 200 mg, mean
# Description: A single 200 mg dose of Sovaprevir was administered to human subjects.
# The pharmacokinetic parameters shown in TABLE 4 were measured in humans following administration of a single Sovaprevir tablet dose.
# [2] = as above; assay type: in vivo; details: mean
# [3] = single tablet dose 100 mg (Fasted)
# [4] = single tablet dose 100 mg (Fed)
smiles,measurement,setting,value
C=C[C@@H]1C[C@]1(NC(=O)[C@@H]1C[C@@H](Oc2cc(-c3ccccc3)nc3cc(OC)ccc23)CN1C(=O)[C@@H](CC(=O)N1CCCCC1)C(C)(C)C)C(=O)NS(=O)(=O)C1CC1 [Sovaprevir],AUC(0-∞),[1],500.0 ng·h/mL
same,Cmax,[1],109 ng/mL
same,Tmax,[1],2.61 h
same,AUC(0-72),[2]; [3],288 ng·h/mL
same,AUC(0-∞),[2]; [3],302 ng·h/mL
same,Cmax,[2]; [3],67.2 ng/mL
same,Tmax,[2]; [3],1.58 h
same,AUC(0-72),[2]; [4],220 ng·h/mL
same,AUC(0-∞),[2]; [4],228 ng·h/mL
same,Cmax,[2]; [4],61.9 ng/mL
same,Tmax,[2]; [4],4.20 h
same,AUC(0-72),[2]; single tablet dose 200 mg,489.9 ng·h/mL
same,AUC(0-72),[2]; single tablet dose 250 mg,735.6 ng·h/mL
same,AUC(0-∞),[2]; single tablet dose 250 mg,748.8 ng·h/mL
same,Cmax,[2]; single tablet dose 250 mg,172 ng/mL
same,Tmax,[2]; single tablet dose 250 mg,3.40 h
same,AUC(0-72),[2]; single tablet dose 300 mg,1301 ng·h/mL
same,AUC(0-∞),[2]; single tablet dose 300 mg,1314 ng·h/mL
same,Cmax,[2]; single tablet dose 300 mg,333 ng/mL
same,Tmax,[2]; single tablet dose 300 mg,3.39 h
